Results reported in US11180462B2, “Microbiocidal oxadiazole derivatives” (SYNGENTA PARTICIPATIONS AG, priority 2015, dated 2021).

Legend:
[1] = tested on: Phakopsora Pachyrhizi; assay: Fungicidal activity against Phakopsora pachyrhizi / soybean / leaf disc preventative (Asian soybean rust); type: in vivo; conditions: foliar, 200 ppm in the applied formulation, soybean leaf disks, compared to untreated control leaf disks, read-out: disease control
Summary of the method: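 Scored 12 to 14 days post-application as percent control relative to untreated check discs, rust spores were sprayed under the disc one day after compound treatment. Incubation: 20°C, 75% rh, first 24–36 h in darkness, then 12 h daily light; discs kept on water agar.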

[2] = tested on: Glomerella lagenarium (Colletotrichum lagenarium); assay: Fungicidal activity against Glomerella lagenarium (Colletotrichum lagenarium) liquid culture / cucumber / preventative (anthracnose); type: cell-based; conditions: Colletotrichum orbiculare; 20 ppm in the applied formulation; liquid culture (PDB), growth inhibition measured photometrically after 3 to 4 days; compared to untreated control; read-out: disease control
Summary of the method: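 Percent activity against the untreated check was derived from photometric growth measurements made 2 to 7 days after conidia in potato dextrose broth were combined with compound at 20 ppm. Cultures were kept dark at 24 °C and 96% humidity.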

[3] = tested on: Puccinia recondita f. Sp. Tritici; assay: Fungicidal activity against Puccinia recondita f. sp. tritici / wheat / leaf disc preventative (brown rust); type: in vivo; conditions: foliar, 200 ppm in the applied formulation, wheat leaf segments, preventative, compared to untreated control leaf disks, read-out: disease control
Summary of the method: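 Percent disease control relative to untreated check segments is scored once disease develops, 7 to 9 days after application. Wheat cv. Kanzler segments receive compound spray (200 ppm in formulation) one day before spore inoculation, then sit at 19° C. and 75% rh under 12 h light/12 h dark.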

[4] = tested on: Puccinia recondita f. Sp. Tritici; assay: Fungicidal activity against Puccinia recondita f. sp. tritici / wheat / leaf disc curative (brown rust); type: in vivo; conditions: foliar, 24 h, 200 ppm in the applied formulation, wheat leaf segments, curative (applied 1 day after inoculation), compared to untreated control leaf disks, read-out: disease control
Summary of the method: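 Wheat cv. Kanzler leaf segments on agar, inoculated with rust spore suspension, kept dark at 19° C and 75% RH; formulated compound sprayed 1 day post-inoculation. Incubated 19° C, 75% RH, 12 h light/12 h dark; percent disease control vs untreated scored 6 to 8 days after application.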

melting point	SMILES	pest or weed control at 200 ppm [1]	inhibition of growth at 20 ppm [2]	pest or weed control at 200 ppm [3]	pest or weed control at 200 ppm [4]
94 to 99 °C	CON(Cc1ccc(-c2noc(C(F)(F)F)n2)cc1)C(=O)/C=C/c1ccccc1 [Compound 1.5, (E)-N-methoxy-3-phenyl-N-[[4-[5-(trifluoromethyl)-1,2,4-oxadiazol-3-yl]phenyl]methyl]-prop-2-enamide]	≥ 80%	≥ 80%		
104.4 to 109 °C	CON(Cc1ccc(-c2noc(C(F)(F)F)n2)cc1)C(=O)C(NC(=O)C1CC1)C(C)C (stereo not drawn) [Compound 1.54, N-[1-(methoxy-[[4-[5-(trifluoromethyl)-1,2,4-oxadiazol-3-yl]phenyl]methyl]carbamoyl]-2-methyl-propyl]-cyclopropane-carboxamide]	≥ 80%	≥ 80%	≥ 80%	≥ 80%
89 to 95 °C	CON(Cc1ccc(-c2noc(C(F)(F)F)n2)c(F)c1)C(=O)c1ccccc1Cl [Compound 1.581, 2-chloro-N-[[3-fluoro-4-[5-(trifluoromethyl)-1,2,4-oxadiazol-3-yl]phenyl]methyl]-N-methoxy-benzamide]	≥ 80%	≥ 80%	≥ 80%	
92.6 to 94.3 °C	COCC(=O)N(Cc1ccc(-c2noc(C(F)(F)F)n2)cc1)CC(F)(F)F [Compound 1.583, 2-methoxy-N-(2,2,2-trifluoroethyl)-N-[[4-[5-(trifluoromethyl)-1,2,4-oxadiazol-3-yl]phenyl]methyl]-acetamide]	≥ 80%	≥ 80%	≥ 80%	≥ 80%
141.2 to 143.5 °C	CCC(=O)N(O)Cc1ccc(-c2noc(C(F)(F)F)n2)cc1 [Compound 1.603, N-hydroxy-N-[[4-[5-(trifiuoromethyl)-1,2,4-oxadiazol-3-yl]phenyl]methyl]-propanamide]	≥ 80%	≥ 80%	≥ 80%	≥ 80%
88.8 to 93.5 °C	CCC(=O)N(Cc1ccc(-c2noc(C(F)(F)F)n2)cc1)C1COC1 [Compound 1.604, N—(Oxetan-3-yl)-N-[[4-[5-(Trifluoromethyl)-1,2,4-Oxadiazol-3-yl]Phenyl]Methyl]Propanamide]	≥ 80%	≥ 80%	≥ 80%	≥ 80%
89.5 to 94 °C	O=C(C1CC1)N(Cc1ccc(-c2noc(C(F)(F)F)n2)cc1)C1COC1 [Compound 1.605, N-(oxetan-3-yl)-N-[[4-[5-(trifluoromethyl)-1,2,4-oxadiazol-3-yl]phenyl]methyl]-cyclopropane-carboxamide]	≥ 80%	≥ 80%	≥ 80%	≥ 80%
144.4 to 147.8 °C	COCC(=O)N(O)Cc1ccc(-c2noc(C(F)(F)F)n2)cc1 [Compound 1.606, N-hydroxy-2-methoxy-N-[[4-[5-(trifluoromethyl)-1,2,4-oxadiazol-3-yl]phenyl]methyl]-acetamide]	≥ 80%	≥ 80%	≥ 80%	≥ 80%
141.2 to 143.5 °C	O=C(C1CC1)N(O)Cc1ccc(-c2noc(C(F)(F)F)n2)cc1 [Compound 1.607, N-hydroxy-N-[[4-[5-(trifiuoromethyl)-1,2,4-oxadiazol-3-yl]phenyl]methyl]-cyclopropane-carboxamide]	≥ 80%	≥ 80%	≥ 80%	≥ 80%
75 to 76 °C	CCC(=O)N(C)C(C#N)c1ccc(-c2noc(C(F)(F)F)n2)cc1 (stereo not drawn) [Compound 1.611, N-[cyano-[4-[5-(trifluoromethyl)-1,2,4-oxadiazol-3-yl]phenyl]methyl]-N-methyl-propanamide]	≥ 80%	≥ 80%	≥ 80%	≥ 80%
108.8 to 111.9 °C	CON(Cc1ccc(-c2noc(C(F)(F)F)n2)cc1)C(=O)C(C)NC(=O)OC(C)(C)C (stereo not drawn) [Compound 1.791, tert-butyl N-[2-(methoxy-[[4-[5-(trifluoromethyl)-1,2,4-oxadiazol-3-yl]phenyl]methyl]-amino]-1-methyl-2-oxo-ethyl]carbamate]		≥ 80%	≥ 80%	≥ 80%
115.3 to 117.8 °C	CCC(=O)NCC(=O)N(Cc1ccc(-c2noc(C(F)(F)F)n2)cc1)OC [Compound 1.793, N-[2-[methoxy-[[4-[5-(trifluoromethyl)-1,2,4-oxadiazol-3-yl]phenyl]methyl]-amino]-2-oxo-ethyl]propanamide]		≥ 80%	≥ 80%	≥ 80%
132.8 to 134.9 °C	CON(Cc1ccc(-c2noc(C(F)(F)F)n2)cc1)C(=O)CNC(C)=O [Compound 1.794, 2-acetamido-N-methoxy-N-[[4-[5-(trifluoromethyl)-1,2,4-oxadiazol-3-yl]phenyl]methyl]-acetamide]		≥ 80%	≥ 80%	≥ 80%
50.6 to 53 °C	CCON(Cc1ccc(-c2noc(C(F)(F)F)n2)cc1)C(=O)OC [Compound 2.5, methyl N-ethoxy-N-[[4-[5-(trifluoromethyl)-1,2,4-oxadiazol-3-yl]phenyl]methyl]-carbamate]	≥ 80%	≥ 80%		≥ 80%
73 to 75.1 °C	COC(=O)N(O)Cc1ccc(-c2noc(C(F)(F)F)n2)cc1 [Compound 2.24, methyl N-hydroxy-N-[[4-[5-(trifluoromethyl)-1,2,4-oxadiazol-3-yl]phenyl]methyl]-carbamate]	≥ 80%	≥ 80%	≥ 80%	≥ 80%
74 to 77 °C	CON(C)C(=O)N(Cc1ccc(-c2noc(C(F)(F)F)n2)cc1)OC [Compound 3.3, 1,3-dimethoxy-1-methyl-3-[[4-[5-(trifluoromethyl)-1,2,4-oxadiazol-3-yl]phenyl]methyl]urea]	≥ 80%	≥ 80%	≥ 80%	≥ 80%
77 to 81.4 °C	CON(Cc1ccc(-c2noc(C(F)(F)F)n2)cc1)C(=O)NCC1CC1 [Compound 3.6, 3-(cyclopropylmethyl)-1-methoxy-1-[[4-[5-(trifluoromethyl)-1,2,4-oxadiazol-3-yl]phenyl]methyl]urea]	≥ 80%	≥ 80%	≥ 80%	≥ 80%
84 to 87 °C	CON(Cc1ccc(-c2noc(C(F)(F)F)n2)cc1)C(=O)NC1CC1 [Compound 3.14, 3-cyclopropyl-1-methoxy-1-[[4-[5-(trifluoromethyl)-1,2,4-oxadiazol-3-yl]phenyl]methyl]urea]	≥ 80%	≥ 80%	≥ 80%	≥ 80%
107 to 110 °C	CCONC(=O)N(Cc1ccc(-c2noc(C(F)(F)F)n2)cc1)OC [Compound 3.18, 3-ethoxy-1-methoxy-1-[[4-[5-(trifluoromethyl)-1,2,4-oxadiazol-3-yl]phenyl]methyl]urea]	≥ 80%	≥ 80%	≥ 80%	≥ 80%
107 to 110 °C	CON(Cc1ccc(-c2noc(C(F)(F)F)n2)cc1)C(=O)NCC1(O)CC1 [Compound 3.54, 3-[(1-hydroxycyclopropyl)-methyl]-1-methoxy-1-[[4-[5-(trifluoromethyl)-1,2,4-oxadiazol-3-yl]phenyl]methyl]urea]		≥ 80%	≥ 80%	≥ 80%
81 to 84 °C	CON(Cc1ccc(-c2noc(C(F)(F)F)n2)cc1)C(=O)NCC1CC1(F)F (stereo not drawn) [Compound 3.103, 3-[(2,2-difluorocyclopropyl)-methyl]-1-methoxy-1-[[4-[5-(trifluoromethyl)-1,2,4-oxadiazol-3-yl]phenyl]methyl]urea]		≥ 80%	≥ 80%	≥ 80%
